Where “and” joins values, the source holds several entries; their conditions need not be identical. Equal values may be shown once.
What was measured:
Sprague-Dawley rats = assay: Hotplate test (thermal withdrawal latency) after intrathecal injection of volatile anesthetic; format: in vivo; conditions: rat; for Thermal withdrawal latency, Average / Thermal withdrawal latency, Group Average: 2 microliters intrathecal; for Thermal withdrawal latency, Average: average per rat; for Thermal withdrawal latency, Group Average: group of four rats, saline control 8.33 seconds; for thermal latency time (analgesic effect): intrathecally delivered dose of 2 microliters
Procedure: This study was designed to evaluate efficacy of direct intrathecal injection of volatile anesthetic in reducing pain and providing analgesia. The study was conducted over a one (1) month period using the volatile anesthetics isoflurane and sevoflurane injected directly intrathecally or dissolved in saline as shown in the studies below. The subject animal used was the rat, since the rat has a well-established model of pain/analgesia testing. In particular, Sprague-Dawley rats weighing over 350 gm were used. The rats were anesthetized with pentobarbital (50 mg/kg), and the anesthetic depth of the animals was determined by corneal reflex and paw withdrawal reflex to a noxious stimulus.
[…]. A midline surgical dissection of the posterior neck muscles was performed to obtain access to the occipito-atlantoid membrane. This membrane was identified and then dissected. A sterile polyethylene catheter was introduced in the subarachnoid space until the lumbar enlargement of the spinal cord (approximately 7-8 cm measured in each animal). The surgical wound was closed, first suturing the neck muscles with 3-0 silk sutures and then closing the skin incision with staples.
After the surgery, the rats were moved to their cages and a radiant lamp was placed over the cages so that the rats would not undergo anesthetic-induced hypothermia. The rats were continuously monitored from the end of the surgery until they were fully awake. Rats showing any motor impairment after surgery were euthanized.
On the fifth day after surgery, those rats without wound infection or motor dysfunction were transported to the pain behavioral lab to enter the intrathecal study with volatile anesthetics. Twelve rats were selected for the study. All these rats had intrathecal catheters. Isoflurane (1-chloro-2,2,2-trifluoroethyl difluoromethyl ether) and sevoflurane (fluoromethyl 2,2,2-trifluoro-1-(trifluoromethyl)ethyl ether) were used as the halogenated ether compounds. Both of these are halogenated volatile anesthetics, with isoflurane manufactured by Baxter and sevoflurane manufactured by Abbott Laboratories. The 12 rats were divided into 3 groups of four rats each for study A and B.
In the second group, 2 microliters of isoflurane was injected via the intrathecal catheter into each rat. This catheter was also flushed with preservative-free normal saline. This group was then subjected to pain behavioral testing.
In the third group, 2 microliters of sevoflurane was injected via the intrathecal catheter into each rat. This catheter was also flushed with preservative-free normal saline. This group was then subjected to pain behavioral testing.
A “hotplate” behavioral test was used to evaluate pain perception and analgesia. The pain behavioral testing model used in these studies have been well established by Tony Yaksh. (See, for example Chaplan et al., 1994, J. Neurosci. Methods, 53:55-63; Yaksh et al., 2001, J. Appl. Physiol., 90:2386-2402; Kim and Chung, 1992, Pain, 50:355-363.; Sorkin et al., 2001, Anesthesiology, 95:965-973). This test involves determining how quickly a rat will withdraw its hind paw in response to a noxious stimulus such as a radiant heat source placed directly underneath its paw. This time for withdrawal is known as “thermal withdrawal latency”.
Rats were transferred for testing onto a modified Hargreaves apparatus with a heated glass plate maintained at 25° C. (see Hargreaves et al., 1998, Pain, 32:77-88). A focused projection bulb below the plate was aimed at the mid-plantar surface of the paw. A photodiode-activated timer measured the withdrawal latency, and a cutoff time of 25 seconds was used to prevent tissue damage. Thermal withdrawal latency to radiant heat was measured at 5 minutes and 30 minutes after each intrathecal injection. Each paw was tested three times, and the results were averaged. The below data was collected for both the right and left hind paws: […]

rats = assay: Plantar Heat Stimulation Test after subcutaneous injection into the hindpaw; format: in vivo; conditions: rat, 100 μl subcutaneously into one hindpaw; for antinociceptive effect (paw withdrawal latency, treated vs untreated paw): cutoff 22 seconds
Procedure: Rats are assessed for response to thermal stimulation using the Plantar Heat Stimulation Test (i.e., radiant heat) (Planar Analgesia Instrument, Ugo Basile, Italy) by measuring paw withdrawal latency. 100 μl of pureform Isoflurane or 100 μl of 2% Lidocaine was injected subcutaneously into the planar surface of one hindpaw of each rat. For each rat, the untreated, contralateral hindpaw served as its own control.
After the rats acclimated for 15 minutes under acrylic boxes that allow minimal movement, a heat source was positioned beneath the mid-plantar surface of the hind paw. Withdrawal latency was defined as the period of time from the beginning of the thermal stimulation to the brisk withdrawal of the hind paw. To avoid tissue damage, a cutoff time of 22 seconds was set. Thermal stimulation was applied three times to each hind paw at an interstimulus interval of 3-5 minutes. Thermal withdrawal latency was assessed before and after the treatment. An increase in the withdrawal latency in the treated paw compared to the control paw was assessed as analgesic activity of the tested formulation.
For statistical comparison, student paired t-test analysis was used. Differences were considered significant at P<0.05 (# P<0.05 isoflurane versus control n=4; * P<0.05 lidocaine versus control n=3).

[1] = Isoflurane stability: weighing remaining isoflurane in uncapped vials over time; format: physicochemical; conditions: uncapped vial in fume hood
Procedure: In the Examples that follow, the stability of isoflurane in the described compositions was determined in two ways. First, the compositions were examined for the presence of phase separation at the macroscopic level. Secondly, isoflurane content of the compositions was determined by weighing the remaining isoflurane in the composition when they were left uncapped over time. […] The other vials received varying amounts of isoflurane. They were left uncapped in the hood. Over time, the vials were weighed to see if the isoflurane stayed in the composition or had evaporated. The amount evaporated over time in the vehicle control was subtracted from that in the isoflurane-containing composition. The pure form of isoflurane is a volatile anesthetic. In order to assess the volatility of isoflurane, two vials received the indicated amounts of pure form isoflurane. The vials were placed in the chemical fume hood and left uncapped. The vials were weighed at the indicated times to determine the amount of evaporated isoflurane. As it is shown in the table below 0.7893 g isoflurane was evaporated within 3 hours, while 3.4825 g isoflurane took approximately 8 hrs to evaporate completely. These amounts of isoflurane are similar to the amounts of isoflurane that were used to prepare the isoflurane compositions in the Examples that follow.

| SMILES | Thermal withdrawal latency, Average (Sprague-Dawley rats; 5 minutes after injection) | Thermal withdrawal latency, Group Average (Sprague-Dawley rats; 5 minutes after injection) [s] | Thermal withdrawal latency, Average (Sprague-Dawley rats; 30 minutes after injection) | thermal latency time (analgesic effect) (Sprague-Dawley rats) | duration of antinociceptive effect (rats) | antinociceptive effect (paw withdrawal latency, treated vs untreated paw) (rats) | antinociceptive effect began at (rats; time after administration) [min] | time until isoflurane was evaporated ([1]; 0.7893 g pure form) [h] | time to evaporate completely ([1]; 3.4825 g pure form) | antinociceptive effect peaked at (rats; time after administration) [min] | antinociceptive effect returned to baseline levels at (rats; time after administration) [min] |
| --- | --- | --- | --- | --- | --- | --- | --- | --- | --- | --- | --- |
| FC(F)OC(Cl)C(F)(F)F (centres unmarked) [Isoflurane, 1-chloro-2,2,2-trifluoroethyl difluoromethyl ether] | 19.25 s and 18.21 s and 18.63 s and 17.95 s | 18.51 | 9.48 s and 8.93 s and 10.52 s and 9.21 s | significantly increased | continued throughout the experiment | significant antinociceptive effect | 25 | ≤ 3 | approximately 8 hrs | – | – |
| CCN(CC)CC(=O)Nc1c(C)cccc1C [Lidocaine] | – | – | – | – | – | significant antinociceptive effect | 5 | – | – | 15 | 45 |
| FCOC(C(F)(F)F)C(F)(F)F [Sevoflurane, fluoromethyl 2,2,2-trifluoro-1-(trifluoromethyl)ethyl ether] | 14.65 s and 13.82 s and 13.14 s and 12.98 s | 13.65 | 8.61 s and 8.35 s and 8.89 s and 9.54 s | significantly increased | – | – | – | – | – | – | – |

Reference: patent US9566251B2, “Volatile anesthetic compositions and methods of use” (Board of Regents, The University of Texas System, priority 2008, dated 2017)
